Laboratory results from patent US20050159390A1, “Treatment and prevention of HIV and other viral infections” (priority 1998, published 2005).

Key:
PBMCs = assay type: cell-based, human; conditions: human, 6 days
Method: For the standard PBMC assay, PHA-P stimulated cells from at least two normal donors were pooled, diluted in fresh medium to a final concentration of 1×10^6 cells/mL, and plated in the interior wells of a 96 well round bottom microplate at 50 μL/well (5×10^4 cells/well). Test drug dilutions were prepared at a 2× concentration in microfuge tubes and 100 μL of each concentration was placed in appropriate wells in a standard format. A predetermined dilution of virus stock was placed in each test well (50 μL, final MOI≅0.1). Wells with cells and virus alone were used for virus control. Separate plates were prepared identically without virus for drug cytotoxicity studies using an XTT assay system. […]
Tetrazolium dye staining of screening plates: After 6 days of incubation (37° C. with 5% CO2), the test plates were analyzed by staining with the tetrazolium dye XTT (2,3-b (2-methoxy-4-nitro-5-sulfophenyl)-2H-tetrazolium-5-carboxanilide). XTT-tetrazolium is metabolized by mitochondrial enzymes of metabolically active cells to a soluble formazan product, allowing the rapid quantitative analysis of the inhibition of HIV-induced cell killing by anti-HIV compounds. […] Plates were sealed with adhesive plate sealers and inverted several times to mix the soluble formazan product and the plate was read spectrophotometrically at 450 nm with a Molecular Devices Vmax plate reader. […]

HIV-1RF = experiment: CEM-SS cell-based assay, inhibition of HIV-induced cell killing (XTT); conditions: 3.2 μM to 1 mM
Method: Cell Preparation: Prior to infection, CEM-SS cells were grown in complete tissue culture medium (RPMI 1640 medium with 10% heat-inactivated fetal bovine serum, 2 mM L-glutamine, 100 U/mL penicillin, 100 μg/mL streptomycin, 10 μg/mL gentamycin) and transferred to T-150 flasks. On the day preceding the assay, the cells were split 1:2 to assure the cells would be in an exponential growth phase at time of infection. On the day of assay, the cells were washed twice with tissue culture medium and resuspended in fresh tissue culture medium. […]
Virus Preparation: Pre-tittered aliquots of HIV-1ROJO and HIV-1RF were removed from the freezer (−80° C.) and thawed to room temperature in a biological safety cabinet. The virus was resuspended and diluted into tissue culture medium such that the amount of virus added to each well in a volume of 50 μL will be the amount determined to give complete cell killing at 6 days post-infection.
Tetrazolium dye staining of screening plates: After 6 days of incubation (37° C. with 5% CO2), the test plates were analyzed by staining with the tetrazolium dye XTT (2,3-b (2-methoxy-4-nitro-5-sulfophenyl)-2H-tetrazolium-5-carboxanilide). XTT-tetrazolium is metabolized by mitochondrial enzymes of metabolically active cells to a soluble formazan product, allowing the rapid quantitative analysis of the inhibition of HIV-induced cell killing by anti-HIV compounds. […]

HIV-1IIIB = experiment: as above; conditions: 3.2 μM to 1 mM
HIV-1 MN = experiment: P-24 assay, syncytia and CPE in infected PBMCs; assay type: cell-based
Method: PBMCs were isolated as described above and incubated with HIV-1 MN (NIH AIDS reagent program, catalog #137) at 37° C. for 3 hours in 15 mL tubes. Test groups included uninfected PBMCs, infected PBMCs with no N-glycolylneuraminic acid, and infected PBMCs plus N-glycolylneuraminic acid. […] Excess virus was removed by washing the cells with PBS one time then the cells were exposed to N-glycolylneuraminic acid. P24 output was measured using the DuPont P24 assay kit (optical density (OD) in Table 15). Syncytia formation was examined as well as cytopathic effects (CPE). […] Sample #7 (p24 123×10^6 pg HIV-1P24/ml) was excluded from the mean P24 output calculation due to a sampling error.

Molt-4 = experiment: Cell proliferation in treated cell lines; assay type: cell-based, human; conditions: treated cell line; 0 to 200 μM or 1000 μM
DU-145 = experiment: Cell proliferation in treated cell lines; assay type: cell-based, human; conditions: treated cell line; 0 to 200 μM or 1000 μM
HSF = experiment: Cell proliferation in treated cell lines; assay type: cell-based, Human; conditions: treated cell line; 0 to 200 μM or 1000 μM
HT1080 = experiment: Cell proliferation in treated cell lines; assay type: cell-based, human; conditions: treated cell line; 0 to 200 μM or 1000 μM
HepG2 = experiment: Cell proliferation in treated cell lines; assay type: cell-based, human; conditions: treated cell line; 0 to 200 μM or 1000 μM
X4 strain LAI/IIIB = experiment: RT activity in infected PBMCs treated with carbohydrates; assay type: cell-based, HIV; conditions: summary of Table 17
Method: Reverse Transcriptase Activity Assay: A microtiter based reverse transcriptase (RT) reaction was utilized as described by Buckheit et al., (1991), AIDS Research and Human Retroviruses, 7: 295-302. Tritiated thymidine triphosphate (3H-TTP) was suspended in distilled H2O at 5 Ci/mL. Poly rA and oligo dT were prepared as a stock solution which was kept at −20° C. RT reaction buffer was prepared fresh on a daily basis and contained 125 μL 1M EGTA, 125 μL dH2O, 110 μL 10% SDS, 50 μL 1M Tris (pH 7.4), 50 μL 1M DTT, and 40 μL 1M MgCl2. These three solutions were mixed together in a ratio of 2 parts 3H-TTP, 1 part poly rA:oligo dT, and 1 part reaction buffer. Ten microliters of this reaction mixture were placed in a round bottom microtiter plate and 15 μL of virus containing supernatant were added and mixed. The plate was incubated at 37° C. in a water bath with a solid support to prevent submersion of the plate and incubated for 60 minutes. […] Opti-Fluor-O (Packard) was added to each sample and incorporated radioactivity was quantified utilizing a Wallac 1450 MicroBeta Plus liquid scintillation counter. […]
No carbohydrates were added to the control sample. RT activity was determined at 3, 6, 9, 13, 17, and 20 days post-infection (PI) with X4 strain LAI/IIIB.

TNFα = TNFα production in latently infected promonocytic U1 cells, ELISA; assay type: cell-based; conditions: read-out: Inhibition of TNFα Production % of Control
Method: TNFα production was determined by an enzyme linked immunosorbent assay (ELISA) in a competitive format, using a commercially available anti-TNFα antibody. Inhibition of TNFα production is reported as percent of saline control in Table 18 and was dose dependent.

gp120 = target: T1, gp120 (Human immunodeficiency virus type 1 group M subtype B, UniProt P05877); experiment: Inhibition of gp120 binding, HIVMN to CEM-SS cells; set-up: species or system HIV
T1 construct: host or cells: HIV MN virus added to CEM-SS cells

**Q.** How did the TC50 (PBMCs) turn out when `O=C(CO)N[C@H]1[C@H]([C@H](O)[C@H](O)CO)OC(O)(C(=O)O)C[C@@H]1O` (some centres unmarked) [N-glycolylneuraminic acid] was run?
**A.** The TC50 was over 1000 µM.

**Q.** And the anti-HIV activity (HIV-1RF)?
**A.** Its anti-HIV activity is “did not display anti-HIV activity”.

**Q.** What about the anti-HIV activity (HIV-1IIIB) of the same compound?
**A.** The anti-HIV activity was “did not display anti-HIV activity”.

**Q.** What about the CPE (HIV-1 MN; dilution 1:2) of the same compound?
**A.** Its CPE is “negative”.

**Q.** And the Syncytia (HIV-1 MN; dilution 1:2)?
**A.** The Syncytia was “negative”.

**Q.** And the CPE (HIV-1 MN; dilution 1:4)?
**A.** The CPE was “negative”.

**Q.** What about the Syncytia (HIV-1 MN; dilution 1:4) of the same compound?
**A.** The Syncytia was “negative”.

**Q.** And the CPE (HIV-1 MN; dilution 1:8)?
**A.** The CPE was “negative”.

**Q.** What about the Syncytia (HIV-1 MN; dilution 1:8) of the same compound?
**A.** The Syncytia was “negative”.

**Q.** And the CPE (HIV-1 MN; dilution 1:16)?
**A.** The CPE was “negative”.

**Q.** And the Syncytia (HIV-1 MN; dilution 1:16)?
**A.** The Syncytia was “negative”.

**Q.** And the CPE (HIV-1 MN; dilution 1:32)?
**A.** The CPE was “negative”.

**Q.** And the Syncytia (HIV-1 MN; dilution 1:32)?
**A.** The Syncytia was “negative”.

**Q.** What about the CPE (HIV-1 MN; dilution 1:64) of the same compound?
**A.** Its CPE is “negative”.

**Q.** And the Syncytia (HIV-1 MN; dilution 1:64)?
**A.** The Syncytia was “negative”.

**Q.** What about the “% Confluency (day 5)” value (Molt-4) of the same compound?
**A.** The value was 50%.

**Q.** And the “% Confluency (day 5)” value (DU-145)?
**A.** The value was 100%.

**Q.** What about the “% Confluency (day 5)” value (HSF) of the same compound?
**A.** The value was 100%.

**Q.** And the “% Confluency (day 5)” value (HT1080)?
**A.** The value was 100%.

**Q.** And the “% Confluency (day 5)” value (HepG2)?
**A.** Its value is 50%.

**Q.** What about the “RT activity in treated cells (in words)” value (X4 strain LAI/IIIB) of the same compound?
**A.** The value was “RT activity was decreased”.

**Q.** What about the inhibition at 0.1 µM (TNFα; 0.1 μM) of the same compound?
**A.** The inhibition at 0.1 µM was 0%.

**Q.** And the inhibition at 0.3 µM (TNFα; 0.3 μM)?
**A.** Its inhibition at 0.3 µM is 0%.

**Q.** And the inhibition at 10 µM (TNFα; 10 μM)?
**A.** The inhibition at 10 µM was 9.8%.

**Q.** And the inhibition at 30 µM (TNFα; 30 μM)?
**A.** Its inhibition at 30 µM is 22.6%.

**Q.** What about the inhibition at 100 µM (TNFα; 100 μM) of the same compound?
**A.** Its inhibition at 100 µM is 96%.

**Q.** What about the “Inhibition of gp120 Binding (% of control)” value (shortened to “Inhibition … (% of control)”) (gp120; 20 μm/ml) of the same compound?
**A.** Its value is 9.8%.

**Q.** What about the “Inhibition … (% of control)” value (gp120; 80 μm/ml) of the same compound?
**A.** Its value is 57.6%.

**Q.** And the “Inhibition … (% of control)” value (gp120; 200 μm/ml)?
**A.** The value was 86.8%.
